Data on 20 compounds can be found in US5849731A, “Indole derivatives and medical application thereof” (Toray Industries, Inc., priority 1995, dated 1998).

T1 sequence (P32300 whole entry): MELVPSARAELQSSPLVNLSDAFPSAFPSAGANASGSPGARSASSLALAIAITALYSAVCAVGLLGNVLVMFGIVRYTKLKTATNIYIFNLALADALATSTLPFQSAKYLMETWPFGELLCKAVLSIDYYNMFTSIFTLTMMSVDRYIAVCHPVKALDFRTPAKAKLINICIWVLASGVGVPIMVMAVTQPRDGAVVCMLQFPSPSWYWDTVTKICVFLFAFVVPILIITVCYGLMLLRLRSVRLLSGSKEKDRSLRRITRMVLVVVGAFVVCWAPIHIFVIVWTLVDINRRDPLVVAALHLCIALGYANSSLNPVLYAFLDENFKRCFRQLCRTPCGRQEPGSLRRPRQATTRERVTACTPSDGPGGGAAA

One assay has as its target T1, δ-opioid (Mus musculus, UniProt P32300).
T1 construct: Each of the vas deferens isolated from the mice was hung in a Magnus tube; from tissue; host or cells: isolated vas deferens of male ddy strain mice
Nature of the assay: δ-opioid antagonism against DPDPE in mouse vas deferens (MVD). The assay is classed as biochemical, mouse (male ddy strain).
Conditions: not given
As to the method: Using mouse vas deferens (MVD), antagonistic compounds were examined for antagonism against a δ-opioid agonist DPDPE, and agonistic compounds were examined for inhibitory activity against MVD contraction by electric stimulation, and for antagonism by a δ-opioid antagonist NTI.
Male ddy strain mice were used in this experiment. Each of the vas deferens isolated from the mice was hung in a Magnus tube which was filled with a Krebes-Henseleit solution (NaCl […]; KCl 4.7 mM; CaCl2 2.5 mM; KH2 PO4 1.1 mM; NaHCO3 25 mM; glucose 11 mM), and aerated with a gas of 5% carbon dioxide and 95% oxygen and maintained at 37° C. Electric stimulation was applied through upper and lower ring-shaped platinum electrodes at 0.1 Hz and 5.0 mS. Tissue contraction was recorded on a polygraph using an isometric transducer.
Initially, DPDPE was added in a cumulative manner to determine the IC50 value (concentration for 50% inhibition of contraction induced by electric stimulation). Next, 100 nM of a sample compound was added to the system beforehand, and 20 minutes later, DPDPE was added in a cumulative manner. According to the above procedure, the ratio of the IC50 value of DPDPE in the presence of the sample compound to that in the absence of it was determined, and the pA2 value was calculated in accordance with the Schild, et al.'s method [Schild, H. O., Br. J. Pharamacol. Chamother. 4, 277 (1949)].
What is called Kb is the affinity of an antagonist, worked out from how it opposes an agonist. `Oc1ccc2c3c1O[C@H]1c4c(c5cc(Cl)cc6c5n4CCC6)C[C@@]4(O)[C@@H](C2)N(CC2CC2)CC[C@]314` [Compound 8, 17-cyclopropylmethyl-6,7-didehydro-4,5α-epoxy-3,14β-dihydroxy-1',7'-trimethylene-5'-chloro-6,7,2',3'-indolomorphinan] showed a Kb of 5.01 nM.

Turning to `COc1cc2c3c(c1)c1c(n3CCC2)[C@@H]2Oc3c(O)ccc4c3[C@@]23CCN(CC2CC2)[C@H](C4)[C@]3(O)C1` [Compound 19, 17-cyclopropylmethyl-6,7-didehydro-4,5α-epoxy-3,14β-dihydroxy-1',7'-trimethylene-5'-methoxy-6,7,2',3'-indolomorphinan], the Kb is 1 nM.

`Oc1ccc2c3c1O[C@H]1c4c(c5cc(Br)cc6c5n4CCC6)C[C@@]4(O)[C@@H](C2)N(CC2CC2)CC[C@]314` [Compound 20, 17-cyclopropylmethyl-6,7-didehydro-4,5α-epoxy-3,14β-dihydroxy-1',7'-trimethylene-5'-bromo-6,7,2',3'-indolomorphinan] had a Kb of 3.98 nM.

Turning to `Oc1ccc2c3c1O[C@H]1c4c(c5cccc6c5n4CCCCC6)C[C@@]4(O)[C@@H](C2)N(CC2CC2)CC[C@]314` [Compound 21, 17-cyclopropylmethyl-6,7-didehydro-4,5α-epoxy-3,14β-dihydroxy-1',7'-pentamethylene-6,7,2',3'-indolomorphinan], the antagonist dissociation constant (Kb) was 10 nM.

On to `Oc1ccc2c3c1O[C@H]1c4c(c5cccc6c5n4CCS6)C[C@@]4(O)[C@@H](C2)N(CC2CC2)CC[C@]314` [Compound 22, 17-cyclopropylmethyl-6,7-didehydro-4,5α-epoxy-3,14β-dihydroxy-7',1'-epithioethano-6,7,2',3'-indolomorphinan], for which the Kb was 0.794 nM.

The compound `Oc1ccc2c3c1O[C@H]1c4c(c5cccc6c5n4CCO6)C[C@@]4(O)[C@@H](C2)N(CC2CC2)CC[C@]314` [Compound 23, 17-cyclopropylmethyl-6,7-didehydro-4,5α-epoxy-3,14β-dihydroxy-7',1'-epoxyethano-6,7,2',3'-indolomorphinan] had a Kb of 0.158 nM. The compound `Oc1ccc2c3c1O[C@H]1c4c(c5c(C(F)(F)F)ccc6c5n4CCC6)C[C@@]4(O)[C@@H](C2)N(CC2CC2)CC[C@]314` [Compound 24, 17-cyclopropylmethyl-6,7-didehydro-4,5α-epoxy-3,14β-dihydroxy-1',7'-trimethylene-4'-trifluoromethyl-6,7,2',3'-indolomorphinan] had a Kb of 10 nM. On the same count and under the same terms, the result for `CC1(C)Cc2cccc3c4c(n(c23)C1)[C@@H]1Oc2c(O)ccc3c2[C@@]12CCN(CC1CC1)[C@H](C3)[C@]2(O)C4` [Compound 26, 17-cyclopropylmethyl-6,7-didehydro-4,5α-epoxy-3,14β-dihydroxy-1',7'-(2,2-dimethylpropano)-6,7,2',3'-indolomorphinan] reads 3.16 nM.

For the next assay, the system named is capsaicin-induced cough. In words: Antitussive action in rat, capsaicin-induced cough. The assay is classed as in vivo. Particulars: ip, 0.5 h, dosage for 50% cough inhibition, intraperitoneal, 10% DMSO solution, 30 minutes after administration. The method, then:
Evaluation of Antitussive Action in Rat as a Model for Capsaicin-Induced Cough
Cough was induced by forcing rats to inhale capsaicin (60 μM) which was nebulized by an ultrasonic nebulizer, and fed to caps over the rats' heads through silicone tubes by a respirator. Capsaicin was fed for inhalation at a rate of 70 times/min. and 10 ml each time.
Two hundred and seventy minutes before the drug administration, capsaicin was inhaled for 5 minutes, and inducement of coughing was confirmed during this period. Thirty minutes after the drug administration, capsaicin was inhaled for 5 minutes, and the number of induced coughs during capsaicin inhalation was counted. Antitussive effect was evaluated by determining an inhibitory ratio, namely, the ratio of the number of coughs after the drug administration to that before the drug administration. Capsaicin was dissolved in saline. Each drug was dissolved in a 10% DMSO solution and intraperitoneally administered. The effect of the drug is expressed with an ED50 value which is the dosage for 50% cough inhibition
What is called ED50 is the dose that gives a 50% effect, or the effect in half of the subjects. A lower ED50 goes with an effect at a small dose. As for `COc1ccc2c3c1O[C@H]1c4c(c5ccc(OC)c6c5n4CCC6)C[C@@]4(O)[C@@H](C2)N(CC2CC2)CC[C@]314` [Compound 12, 17-cyclopropylmethyl-6,7-didehydro-4,5α-epoxy-3,6'-dimethoxy-14β-hydroxy-1',7'-trimethylene-6,7,2',3'-indolomorphinan], the median effective dose (ED50) worked out at 2.5 µg/kg. The same measure, in the same setting: next, `COc1ccc2c3c1O[C@H]1c4c(c5cc(C)cc6c5n4CCC6)C[C@@]4(O)[C@@H](C2)N(CC2CC2)CC[C@]314` [Compound 13, 17-cyclopropylmethyl-6,7-didehydro-4,5α-epoxy-3-methoxy-14β-hydroxy-1',7'-trimethylene-5'-methyl-6,7,2',3'-indolomorphinan]: 5.33 µg/kg; `COc1ccc2c3c1O[C@H]1c4c(c5c(C)ccc6c5n4CCC6)C[C@@]4(O)[C@@H](C2)N(CC2CC2)CC[C@]314` [Compound 14, 17-cyclopropylmethyl-6,7-didehydro-4,5α-epoxy-3-methoxy-14β-hydroxy-1',7'-trimethylene-4'-methyl-6,7,2',3'-indolomorphinan]: 23.8 µg/kg; `COc1ccc2c3c1O[C@H]1c4c(c5cccc6c5n4CCCC6)C[C@@]4(O)[C@@H](C2)N(CC2CC2)CC[C@]314` [Compound 15, 17-cyclopropylmethyl-6,7-didehydro-4,5α-epoxy-3-methoxy-14β-hydroxy-1',7'-tetramethylene-6,7,2',3'-indolomorphinan]: 9.68 µg/kg.

`COc1ccc2c3c1O[C@H]1c4c(c5cc(F)cc6c5n4CCC6)C[C@@]4(O)[C@@H](C2)N(CC2CC2)CC[C@]314` [Compound 16, 17-cyclopropylmethyl-6,7-didehydro-4,5α-epoxy-3-methoxy-14β-hydroxy-1',7'-trimethylene-5'-fluoro-6,7,2',3'-indolomorphinan] registered an ED50 of 4.73 µg/kg. The same measure, in the same setting: next, `COc1ccc2c3c1O[C@H]1c4c(c5cccc6c5n4Cc4ccccc4-6)C[C@@]4(O)[C@@H](C2)N(CC2CC2)CC[C@]314` [Compound 17, 17-cyclopropylmethyl-6,7-didehydro-4,5α-epoxy-3-methoxy-14β-hydroxy-1',7'-(2",3"-benzotrimethylene)-6,7,2',3'-indolomorphinan]: 5.02 µg/kg; `COc1ccc2c3c1O[C@H]1c4c(c5cc(Cl)cc6c5n4CCC6)C[C@@]4(O)[C@@H](C2)N(CC2CC2)CC[C@]314` [Compound 18, 17-cyclopropylmethyl-6,7-didehydro-4,5α-epoxy-3-methoxy-14β-hydroxy-1',7'-trimethylene-5'-chloro-6,7,2',3'-indolomorphinan]: 13.4 µg/kg; `C=CCN1CC[C@]23c4c5ccc(OC)c4O[C@H]2c2c(c4cccc6c4n2CCC6)C[C@@]3(O)[C@H]1C5` [Compound 34, 17-allyl-6,7-didehydro-4,5α-epoxy-3-methoxy-14β-hydroxy-1',7'-trimethylene-6,7,2',3'-indolomorphinan]: 1.1 µg/kg. Turning to `COc1ccc2c3c1O[C@H]1c4c(c5cc(Br)cc6c5n4CCC6)C[C@@]4(O)[C@@H](C2)N(CC2CC2)CC[C@]314` [Compound 35, 17-cyclopropylmethyl-6,7-didehydro-4,5α-epoxy-3-methoxy-14β-hydroxy-1',7'-trimethylene-5'-bromo-6,7,2',3'-indolomorphinan], it took a dose of 21.2 µg/kg to reach the 50% effect level (ED50).

Take `COc1ccc2c3c1O[C@H]1c4c(c5cccc6c5n4CCC6(C)C)C[C@@]4(O)[C@@H](C2)N(CC2CC2)CC[C@]314` [Compound 40, 17-cyclopropylmethyl-6,7-didehydro-4,5α-epoxy-3-methoxy-14β-hydroxy-1',7'-(1,1-dimethylpropano)-6,7,2',3'-indolomorphinan]: the ED50 worked out at 2.46 µg/kg. For the compound `COc1ccc2c3c1O[C@H]1c4c(c5ccc6cccc7c6c5n4CC7)C[C@@]4(O)[C@@H](C2)N(CC2CC2)CC[C@]314` [Compound 42, 17-cyclopropylmethyl-6,7-didehydro-4,5α-epoxy-3-methoxy-14β-hydroxy-1',3"-ethylene-6',7'-benzo-6,7,2',3'-indolomorphinan], the ED50 stood at 21.1 µg/kg.

`COc1ccc2c3c1O[C@H]1c4c(c5c(OC)ccc6c5n4CCC6)C[C@@]4(O)[C@@H](C2)N(CC2CC2)CC[C@]314` [Compound 44, 17-cyclopropylmethyl-6,7-didehydro-4,5α-epoxy-3,4'-dimethoxy-14β-hydroxy-1',7'-trimethylene-6,7,2',3'-indolomorphinan] yielded an ED50 of 10.9 µg/kg.
